# Measured values from US8143226B2, “Tyrosine kinase receptor antagonists and methods of treatment for breast cancer” (The Regents of the University of California, priority 2005, dated 2012).
# Legend:
# [1] = pure NDGA; cited from earlier work
# AKT/PKB = assay: Akt/PKB phosphorylation in MCF-7/HER2-18 cells (western blot); assay type: cell-based, human
# Procedure: […]. Enzyme linked immunosorbent assays (ELISA) for phosphorylated IGF-1R and HER2 IGF-1R phosphorylation was determined by ELISA as described previously for the insulin receptor [Youngren JF, Goldfine ID and Pratley RE: Decreased muscle insulin receptor kinase con-elates with insulin resistance in normoglycemic Pima Indians. Am J Physiol 273: E276-83, 1997]. Briefly, 10 μg lysate protein were added to triplicate wells in a 96-well plate coated with monoclonal antibody to the IGF-IR (IR3; 2 μg/ml), and incubated for 18 hours at 4° C. Plates were washed five times and then HRP-conjugated anti-phosphotyrosine antibody (0.3 μg/ml), diluted in Solution B (50 mM HEPES, pH 7.6, 150 mM NaCl, 0.05% Tween-20, 1 mM PMSF, 2 mM vanadate and 1 mg/ml bacitracin), was added for two hours at 22° C. Plates were washed five times prior to color development with TMB substrate, which was terminated with 1.0 M H3PO4. Values for receptor phosphorylation were determined by measuring absorbance at 450 nm.
# Total protein extracts (10 μg), prepared as described above from cells cultured in the presence or absence of IGF-1 and/or RTK inhibitors, were subjeccted to SDS-PAGE and subsequently transferred to nitrocellulose membranes. […] Membranes were washed again and bound antibodies detected by enhanced chemiluminescence (Pierce). […]
# IGF-1 = IGF-1 activation in pancreatic cancer cells; assay type: cell-based
# MCNeuA tumor cells = assay: Growth of MCNeuA tumors in neuTg mice; assay type: in vivo, mouse; conditions: combined oral 100 mg/kg and i.p. 37.5 mg/kg groups, from 21 days post-implantation
# Description: All animal studies complied with protocols approved by of the Institutional Animal Care and Use Committee of the University of California, San Francisco. Our syngeneic model studies utilized the FVB/N-TgN(MMTVneu)202 mouse strain developed by Muller and colleagues (Guy CT, Webster MA, Schaller M, Parsons TJ, Cardiff RD, Muller WJ: Expression of the neu protooncogene in the mammary epithelium of transgenic mice induces metastatic disease. Proc Natl Acad Sci USA 89:10578-10582, 1992). This strain, denoted hereafter as neuTg, expresses the wild-type rat neu proto-oncogene (a homologue of human HER2) under the control of the mouse mammary tumor virus (MMTV) long terminal repeat (LTR) on an FVB mouse background. The MCNeuA mammary carcinoma cell line employed in these studies was derived from a spontaneously arising tumor in a neuTg female mouse (Campbell MJ, Wollish WS, Lobo […] LJ: Epithelial and fibroblast cell lines derived from a spontaneous mammary carcinoma in a MMTV/neu transgenic mouse. In Vitro Cell Dev Biol Anim 38:326-333, 2002). These cells are tumorigenic when transplanted back into neuTg mice. […] This solution was kept warm at 37° C. until given to mice by i.p. injection. […] Tumor growth was measured at the time of drug delivery on alternate treatment days with calipers and volume calculated using the equation: (length×width^2)*(π/6). […]
smiles,measurement,setting,value
"CC(Cc1ccc(O)c(O)c1)C(C)Cc1ccc(O)c(O)c1 (centres unmarked) [NDGA, nordihydroguaiaretic acid]",toxicity,[1],minimal toxicity
same,IGF-1 stimulated phosphorylation of AKT/PKB,AKT/PKB; 3 nM IGF-1,inhibited
same,level of phospho-AKT/PKB,AKT/PKB; absence of IGF-1,decreased
same,IGF-1 activation,IGF-1,inhibiting
same,tumor growth,MCNeuA tumor cells,significantly reduced
